Experimental data taken from ChEMBL document CHEMBL4476867, “Hydroxy formamide derivatives and their use” (2016).

Experiments:
[1] = biological target: T1, Tolloid-like protein 2 (Homo sapiens, UniProt Q9Y6L7); test: Inhibition of C-terminal Avi-6x-His epitope tagged and N-terminal human RAGE signal sequence tagged recombinant human TLL2 (26 to 1015 amino acids) expressed in CHOE1A cells incubated for 60 mins with promyostatin peptide substrate by FRET based assay; format: cell-based
T1 sequence (Q9Y6L7 whole entry): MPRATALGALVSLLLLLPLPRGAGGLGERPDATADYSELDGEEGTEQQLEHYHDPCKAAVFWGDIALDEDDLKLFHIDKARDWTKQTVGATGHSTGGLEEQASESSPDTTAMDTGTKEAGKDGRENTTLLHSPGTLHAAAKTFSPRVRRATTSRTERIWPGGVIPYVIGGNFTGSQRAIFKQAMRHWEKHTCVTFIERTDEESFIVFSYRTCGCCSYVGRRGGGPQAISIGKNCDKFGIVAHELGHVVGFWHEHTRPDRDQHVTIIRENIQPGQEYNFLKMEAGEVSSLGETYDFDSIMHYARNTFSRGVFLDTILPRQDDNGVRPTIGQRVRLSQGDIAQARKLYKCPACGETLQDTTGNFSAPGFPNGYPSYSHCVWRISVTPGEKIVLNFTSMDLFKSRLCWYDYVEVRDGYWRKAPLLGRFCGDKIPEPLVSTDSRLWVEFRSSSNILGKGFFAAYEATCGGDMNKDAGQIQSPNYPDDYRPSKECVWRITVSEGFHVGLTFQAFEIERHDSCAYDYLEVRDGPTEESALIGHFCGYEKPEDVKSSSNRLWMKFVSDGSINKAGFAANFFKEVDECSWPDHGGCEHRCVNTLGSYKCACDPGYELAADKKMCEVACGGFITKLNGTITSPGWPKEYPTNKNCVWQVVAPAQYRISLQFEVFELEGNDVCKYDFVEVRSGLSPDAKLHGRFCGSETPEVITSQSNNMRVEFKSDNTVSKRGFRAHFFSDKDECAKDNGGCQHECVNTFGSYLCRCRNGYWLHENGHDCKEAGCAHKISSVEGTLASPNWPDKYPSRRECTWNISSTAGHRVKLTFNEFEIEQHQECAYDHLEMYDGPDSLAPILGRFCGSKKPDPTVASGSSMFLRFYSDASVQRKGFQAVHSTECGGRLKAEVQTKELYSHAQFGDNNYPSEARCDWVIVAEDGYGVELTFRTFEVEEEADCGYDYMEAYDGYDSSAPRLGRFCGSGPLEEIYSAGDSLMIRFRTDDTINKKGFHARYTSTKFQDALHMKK

[2] = biological target: T2, Bone morphogenetic protein 1 (Homo sapiens, UniProt P13497); test: Inhibition of C-terminal FLAG-6x-His epitope tagged and N-terminal human RAGE signal sequence tagged human BMP1 (23 to 721 amino acids) expressed in CHO-E1 cells pre-incubated for 10 mins before promyostatin peptide substrate addition and measured after 30 mins using 50 nM BMP1 by FRET based assay; format: cell-based
T2 sequence (P13497 whole entry): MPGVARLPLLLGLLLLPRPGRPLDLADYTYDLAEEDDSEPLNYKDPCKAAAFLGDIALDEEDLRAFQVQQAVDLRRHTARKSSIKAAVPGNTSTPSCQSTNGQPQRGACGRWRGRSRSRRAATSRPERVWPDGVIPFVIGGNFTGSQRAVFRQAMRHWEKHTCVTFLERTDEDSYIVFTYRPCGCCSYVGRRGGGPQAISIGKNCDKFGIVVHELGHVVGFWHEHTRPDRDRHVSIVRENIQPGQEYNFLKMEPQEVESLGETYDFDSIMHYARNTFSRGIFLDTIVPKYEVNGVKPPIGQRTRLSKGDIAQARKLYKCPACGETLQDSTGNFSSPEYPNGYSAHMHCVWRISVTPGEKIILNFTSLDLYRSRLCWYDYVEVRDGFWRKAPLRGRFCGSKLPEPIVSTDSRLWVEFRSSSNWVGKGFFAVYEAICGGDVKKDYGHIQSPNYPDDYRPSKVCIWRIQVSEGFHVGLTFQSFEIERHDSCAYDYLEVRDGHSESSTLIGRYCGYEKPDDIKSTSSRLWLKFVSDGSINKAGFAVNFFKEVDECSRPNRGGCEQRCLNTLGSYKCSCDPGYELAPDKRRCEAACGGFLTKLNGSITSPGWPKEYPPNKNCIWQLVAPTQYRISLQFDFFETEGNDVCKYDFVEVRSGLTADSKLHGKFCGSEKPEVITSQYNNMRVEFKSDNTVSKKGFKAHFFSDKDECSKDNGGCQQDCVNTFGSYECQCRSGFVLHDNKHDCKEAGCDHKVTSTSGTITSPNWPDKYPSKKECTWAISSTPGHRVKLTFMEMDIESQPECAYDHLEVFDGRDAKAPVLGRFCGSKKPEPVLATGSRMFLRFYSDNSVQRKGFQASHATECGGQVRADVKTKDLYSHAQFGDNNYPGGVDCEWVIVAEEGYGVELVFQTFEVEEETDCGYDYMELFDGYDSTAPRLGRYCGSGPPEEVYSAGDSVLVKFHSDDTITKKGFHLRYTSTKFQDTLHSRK

[3] = Reduction in mature collagen deposition levels in human cardiac fibroblasts incubated for 24 to 48 hrs by immunostaining based assay; format: functional
Method in brief: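 Treatment of human cardiac fibroblasts took place in 96-well plates using ficoll crowding EMEM with 100 μM ascorbic acid and under 0.3% DMSO, at 37° C for 24 to 48 hr. Cells were then fixed for 10 min in −20° C methanol and stained for mature collagen I and nuclei. Collagen intensity per field was normalised to nuclei count, and GraphPad Prism was used to fit the IC50.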

[4] = biological target: T2, Bone morphogenetic protein 1; test: Inhibition of C-terminal FLAG-6x-His epitope tagged and N-terminal human RAGE signal sequence tagged human BMP1 (23 to 721 amino acids) expressed in CHO-E1 cells pre-incubated for 10 mins before promyostatin peptide substrate addition and measured after 60 mins using 0.5 nM BMP1 by FRET based assay; format: cell-based
[5] = biological target: Tolloid-like protein 1 (Homo sapiens, UniProt O43897, I156V/N221S/V284A); test: Inhibition of recombinant human TLL1 I156V/N221S/V284A mutant expressed in CHOE1A cells pre-incubated for 10 mins before promyostatin peptide substrate addition and measured after 60 mins by FRET based assay; format: cell-based
Sequence of Tolloid-like protein 1 (O43897 148-1013 I156V/N221S/V284A limits assumed): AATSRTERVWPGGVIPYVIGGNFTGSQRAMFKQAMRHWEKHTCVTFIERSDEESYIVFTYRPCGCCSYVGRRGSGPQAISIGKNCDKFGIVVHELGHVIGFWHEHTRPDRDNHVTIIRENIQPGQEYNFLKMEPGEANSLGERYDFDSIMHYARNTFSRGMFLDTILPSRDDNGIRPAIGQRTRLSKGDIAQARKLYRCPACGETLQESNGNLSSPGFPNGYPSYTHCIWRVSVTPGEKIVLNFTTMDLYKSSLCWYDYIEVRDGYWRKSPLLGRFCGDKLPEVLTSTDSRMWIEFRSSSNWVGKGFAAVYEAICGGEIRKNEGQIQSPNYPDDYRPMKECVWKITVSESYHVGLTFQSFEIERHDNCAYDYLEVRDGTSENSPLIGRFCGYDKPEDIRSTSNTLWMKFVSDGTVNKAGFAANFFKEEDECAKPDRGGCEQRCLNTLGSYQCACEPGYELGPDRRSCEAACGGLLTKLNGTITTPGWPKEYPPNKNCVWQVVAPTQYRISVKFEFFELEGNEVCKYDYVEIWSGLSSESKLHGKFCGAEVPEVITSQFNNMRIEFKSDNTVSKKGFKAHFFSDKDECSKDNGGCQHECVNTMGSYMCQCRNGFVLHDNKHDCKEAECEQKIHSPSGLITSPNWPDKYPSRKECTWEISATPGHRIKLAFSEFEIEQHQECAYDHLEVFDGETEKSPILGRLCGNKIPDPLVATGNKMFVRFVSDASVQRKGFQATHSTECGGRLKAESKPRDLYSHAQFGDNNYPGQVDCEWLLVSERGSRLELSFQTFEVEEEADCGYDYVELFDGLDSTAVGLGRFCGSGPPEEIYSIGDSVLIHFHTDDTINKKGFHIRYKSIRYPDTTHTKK

[6] = Reduction in PICP levels in human cardiac fibroblasts incubated for 24 to 48 hrs by ELISA; format: functional
Method in brief: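 Procollagen I C-terminal propeptide in the culture medium was quantified using a Quidel ELISA. The cells were human cardiac fibroblasts of passage 6 or below, seeded at 10,000 to 15,000 cells per well in 96-well plates and treated the next day in ficoll crowding EMEM with 100 μM ascorbic acid and under 0.3% DMSO. Treatment lasted 24 to 48 hr at 37° C. For IC50, levels normalized to untreated controls were fitted to a log(inhibitor)-response equation in GraphPad Prism.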

| Compound | IC50 [1] [nM] | IC50 [2] [nM] | IC50 [3] [nM] | IC50 [4] [nM] | IC50 [5] [nM] | IC50 [6] [nM] |
| --- | --- | --- | --- | --- | --- | --- |
| CCCCC[C@@H](C(=O)NCNC(=O)c1ccc(-c2cc(OCC)cc(C(=O)O)c2O)o1)[C@@H](CC)N(O)C=O | < 794 | < 200 | < 1000 | < 126 | < 398 | < 3980 |
| CCOc1cc(C(=O)N(CC(=O)O)CC(=O)O)cc(-c2ccc(C(=O)NCNC(=O)[C@H](CCc3ccc(F)cc3F)[C@@H](CC)N(O)C=O)o2)c1 | < 794 | < 200 | < 1000 | < 126 | < 398 | < 3980 |
| CCCCC[C@@H](C(=O)NCNC(=O)c1ccc(-c2ccccc2)o1)[C@@H](CC)N(O)C=O | < 794 | < 200 | < 1000 | < 126 | < 398 | < 3980 |
| CCCCC[C@@H](C(=O)NCNC(=O)c1ccc(-c2cc(OCC)cc(C(=O)N[C@@H](CC(=O)O)C(=O)OC(C)(C)C)c2)o1)[C@@H](CC)N(O)C=O | < 794 | < 200 | < 1000 | < 126 | < 398 | < 3980 |
| CCCCC[C@@H](C(=O)NCNC(=O)c1ccc(-c2cc(CP(=O)(O)O)cc(OCC)c2)o1)[C@@H](CC)N(O)C=O | < 794 | < 200 | < 1000 | < 126 | < 398 | < 3980 |
| CCCCC[C@@H](C(=O)NCNC(=O)c1ccc(-c2cc(O)c(C(=O)O)c(OCC)c2)o1)[C@@H](CC)N(O)C=O | < 794 | < 200 | < 1000 | < 126 | < 398 | < 3980 |
| CCCCC[C@@H](C(=O)NCNC(=O)c1ccc(-c2cc(OCC)cc(C(=O)N[C@@H](CCC(=O)O)C(=O)O)c2)o1)[C@@H](CC)N(O)C=O | < 794 | < 200 | < 1000 | < 126 | < 398 | < 3980 |
| CCOc1cc(-c2ccc(C(=O)NCNC(=O)[C@H](CCc3ccccc3)[C@@H](CC)N(O)C=O)o2)ccc1C(=O)N[C@@H](CC(=O)O)C(=O)O | < 794 | < 200 | < 1000 | < 126 | < 398 | < 3980 |
| CCCCC[C@@H](C(=O)NCNC(=O)c1ccc(-c2ccc(C(=O)N[C@@H](CC(=O)O)C(=O)O)c(OCC(=O)O)c2)o1)[C@@H](CC)N(O)C=O | < 794 | < 200 | < 1000 | < 126 | < 398 | < 3980 |
| CCCCC[C@@H](C(=O)NCNC(=O)c1ccc(-c2cccc(C3(C(=O)O)CC3)c2)o1)[C@@H](CC)N(O)C=O | < 794 | < 200 | < 1000 | < 126 | < 398 | < 3980 |
| CCCCC[C@@H](C(=O)NCNC(=O)c1ccc(-c2cc(OCC(=O)O)cc(C(=O)O)c2O)o1)[C@@H](CC)N(O)C=O | < 794 | < 200 | < 1000 | < 126 | < 398 | < 3980 |
